Laboratory results reported in ChEMBL document CHEMBL4316596, “Antimicrobial Peptides with High Proteolytic Resistance for Combating Gram-Negative Bacteria” (J Med Chem, 2019).
Values after ≈ are worked out from the molar mass of the structure shown. Positions of bridges follow the written chain, without caps; N, C: chain ends. Non-standard residues stand in square brackets, D forms with d. Residues, ends and D or L forms follow the SMILES beside them. *: point of attachment. X1 = CC[C@H](C)CCCCC(=O)*; Dab = NCC[C@H](N)C(=O)O

Experiments:
Pseudomonas aeruginosa [1] = test: Antimicrobial activity against Pseudomonas aeruginosa CICC 21630 clinical isolates after 24 hrs by NCCLS-protocol based assay; format: functional; conditions: CICC 21630, 24 h
Pseudomonas aeruginosa [2] = test: Bactericidal activity against Pseudomonas aeruginosa ATCC 27853 incubated for 4 hrs followed by culture spread on agar plates and cultured overnight; format: functional; conditions: ATCC 27853, 4 h, read-out: MBC>99.9
Klebsiella pneumoniae [3] = test: Bactericidal activity against Klebsiella pneumoniae incubated for 4 hrs followed by culture spread on agar plates and cultured overnight; format: functional; conditions: read-out: MBC>99.9
Escherichia coli [4] = test: Bactericidal activity against Escherichia coli K88 incubated for 4 hrs followed by culture spread on agar plates and cultured overnight; format: functional; conditions: K88, 4 h, read-out: MBC>99.9
Pseudomonas aeruginosa [5] = test: Antimicrobial activity against Pseudomonas aeruginosa 26305 clinical isolates after 24 hrs by NCCLS-protocol based assay; format: functional; conditions: Pseudomonas aeruginosa, 26305, 24 h
Salmonella typhimurium [6] = test: Antimicrobial activity against Salmonella typhimurium C7731 after 24 hrs by NCCLS-protocol based assay; format: functional, Salmonella enterica subsp. enterica serovar Typhimurium; conditions: Salmonella enterica, C7731, 24 h
Escherichia coli [7] = test: Bactericidal activity against Escherichia coli K99 incubated for 4 hrs followed by culture spread on agar plates and cultured overnight; format: functional; conditions: K99, 4 h, read-out: MBC>99.9
Escherichia coli [8] = test: Antimicrobial activity against Escherichia coli K88 after 24 hrs by NCCLS-protocol based assay; format: functional; conditions: K88, 24 h
Escherichia coli [9] = test: Antimicrobial activity against Escherichia coli ATCC 25922 after 24 hrs by NCCLS-protocol based assay; format: functional; conditions: ATCC 25922, 24 h
Pseudomonas aeruginosa [10] = test: Bactericidal activity against Pseudomonas aeruginosa 26305 clinical isolates incubated for 4 hrs followed by culture spread on agar plates and cultured overnight; format: functional; conditions: Pseudomonas aeruginosa, 26305, 4 h; read-out: MBC>99.9
Escherichia coli [11] = test: Bactericidal activity against Escherichia coli ATCC 25922 incubated for 4 hrs followed by culture spread on agar plates and cultured overnight; format: functional; conditions: ATCC 25922, 4 h, read-out: MBC>99.9
Salmonella typhimurium [12] = test: Antimicrobial activity against Salmonella typhimurium ATCC 14028 after 24 hrs by NCCLS-protocol based assay; format: functional, Salmonella enterica subsp. enterica serovar Typhimurium; conditions: Salmonella enterica, ATCC 14028, 24 h
Pseudomonas aeruginosa [13] = test: Antimicrobial activity against Pseudomonas aeruginosa ATCC 27853 after 24 hrs by NCCLS-protocol based assay; format: functional; conditions: ATCC 27853, 24 h
Klebsiella pneumoniae [14] = test: Antimicrobial activity against Klebsiella pneumoniae after 24 hrs by NCCLS-protocol based assay; format: functional
[15] = Bactericidal activity against Salmonella pullorum C7913 incubated for 4 hrs followed by culture spread on agar plates and cultured overnight; format: functional, Salmonella enterica subsp. enterica serovar Pullorum; conditions: Salmonella enterica, C7913, 4 h; read-out: MBC>99.9
Salmonella typhimurium [16] = test: Bactericidal activity against Salmonella typhimurium ATCC 14028 incubated for 4 hrs followed by culture spread on agar plates and cultured overnight; format: functional, Salmonella enterica subsp. enterica serovar Typhimurium; conditions: Salmonella enterica, ATCC 14028, 4 h; read-out: MBC>99.9
Pseudomonas aeruginosa [17] = test: Bactericidal activity against Pseudomonas aeruginosa CICC 21625 clinical isolates incubated for 4 hrs followed by culture spread on agar plates and cultured overnight; format: functional; conditions: CICC 21625, 4 h, read-out: MBC>99.9
Pseudomonas aeruginosa [18] = test: Antimicrobial activity against Pseudomonas aeruginosa PAO1 after 24 hrs by NCCLS-protocol based assay; format: functional; conditions: PAO1, 24 h
Escherichia coli [19] = test: Antimicrobial activity against Escherichia coli K99 after 24 hrs by NCCLS-protocol based assay; format: functional; conditions: K99, 24 h
Escherichia coli [20] = test: Antimicrobial activity against Escherichia coli 078 after 24 hrs by NCCLS-protocol based assay; format: functional; conditions: Escherichia coli, 078, 24 h
Escherichia coli [21] = test: Bactericidal activity against Escherichia coli UB1005 incubated for 4 hrs followed by culture spread on agar plates and cultured overnight; format: functional; conditions: UB1005, 4 h, read-out: MBC>99.9
Escherichia coli [22] = test: Bactericidal activity against Escherichia coli 078 incubated for 4 hrs followed by culture spread on agar plates and cultured overnight; format: functional; conditions: Escherichia coli, 078, 4 h; read-out: MBC>99.9
Acinetobacter baumannii [23] = test: Bactericidal activity against Acinetobacter baumannii incubated for 4 hrs followed by culture spread on agar plates and cultured overnight; format: functional; conditions: read-out: MBC>99.9
Escherichia coli [24] = test: Antimicrobial activity against Escherichia coli UB1005 after 24 hrs by NCCLS-protocol based assay; format: functional; conditions: UB1005, 24 h
Pseudomonas aeruginosa [25] = test: Antimicrobial activity against Pseudomonas aeruginosa CICC 21625 clinical isolates after 24 hrs by NCCLS-protocol based assay; format: functional; conditions: CICC 21625, 24 h
Pseudomonas aeruginosa [26] = test: Bactericidal activity against Pseudomonas aeruginosa PAO1 incubated for 4 hrs followed by culture spread on agar plates and cultured overnight; format: functional; conditions: PAO1, 4 h, read-out: MBC>99.9
Acinetobacter baumannii [27] = test: Antimicrobial activity against Acinetobacter baumannii after 24 hrs by NCCLS-protocol based assay; format: functional
[28] = Antimicrobial activity against Salmonella pullorum C7913 after 24 hrs by NCCLS-protocol based assay; format: functional, Salmonella enterica subsp. enterica serovar Pullorum; conditions: Salmonella enterica, C7913, 24 h
Pseudomonas aeruginosa [29] = test: Bactericidal activity against Pseudomonas aeruginosa CICC 21630 clinical isolates incubated for 4 hrs followed by culture spread on agar plates and cultured overnight; format: functional; conditions: CICC 21630, 4 h, read-out: MBC>99.9
Pseudomonas aeruginosa [30] = test: Antimicrobial activity against Pseudomonas aeruginosa 25349 clinical isolates after 24 hrs by NCCLS-protocol based assay; format: functional; conditions: Pseudomonas aeruginosa, 25349, 24 h
Salmonella typhimurium [31] = test: Bactericidal activity against Salmonella typhimurium C7731 incubated for 4 hrs followed by culture spread on agar plates and cultured overnight; format: functional, Salmonella enterica subsp. enterica serovar Typhimurium; conditions: Salmonella enterica, C7731, 4 h; read-out: MBC>99.9
Pseudomonas aeruginosa [32] = test: Bactericidal activity against Pseudomonas aeruginosa 25349 clinical isolates incubated for 4 hrs followed by culture spread on agar plates and cultured overnight; format: functional; conditions: Pseudomonas aeruginosa, 25349, 4 h; read-out: MBC>99.9

| Compound | MIC95 (Pseudomonas aeruginosa [1]) | MBC (Pseudomonas aeruginosa [2]) | MBC (Klebsiella pneumoniae [3]) | MBC (Escherichia coli [4]) | MIC95 (Pseudomonas aeruginosa [5]) | MIC95 (Salmonella typhimurium [6]) | MBC (Escherichia coli [7]) | MIC95 (Escherichia coli [8]) | MIC95 (Escherichia coli [9]) | MBC (Pseudomonas aeruginosa [10]) | MBC (Escherichia coli [11]) | MIC95 (Salmonella typhimurium [12]) | MIC95 (Pseudomonas aeruginosa [13]) | MIC95 (Klebsiella pneumoniae [14]) | MBC [15] | MBC (Salmonella typhimurium [16]) | MBC (Pseudomonas aeruginosa [17]) | MIC95 (Pseudomonas aeruginosa [18]) | MIC95 (Escherichia coli [19]) | MIC95 (Escherichia coli [20]) | also measured |
| --- | --- | --- | --- | --- | --- | --- | --- | --- | --- | --- | --- | --- | --- | --- | --- | --- | --- | --- | --- | --- | --- |
| CN[C@H](CC(C)C)C(=O)N[C@H]1C(=O)N[C@@H](CC(N)=O)C(=O)N[C@H]2C(=O)N[C@H]3C(=O)N[C@H](C(=O)N[C@H](C(=O)O)c4cc(O)cc(O)c4-c4cc3ccc4O)[C@H](O)c3ccc(c(Cl)c3)Oc3cc2cc(c3O[C@@H]2O[C@H](CO)[C@@H](O)[C@H](O)[C@H]2O[C@H]2C[C@](C)(N)[C@H](O)[C@H](C)O2)Oc2ccc(cc2Cl)[C@H]1O [VANCOMYCIN] | 32 µM (≈ 46.4 µg/mL) | > 64 µM | 32 µM (≈ 46.4 µg/mL) | 4 µM (≈ 5.8 µg/mL) | 64 µM (≈ 92.8 µg/mL) | 8 µM (≈ 11.6 µg/mL) | 4 µM (≈ 5.8 µg/mL) | 2 µM (≈ 2.9 µg/mL) | 8 µM (≈ 11.6 µg/mL) | > 64 µM | 16 µM (≈ 23.2 µg/mL) | 8 µM (≈ 11.6 µg/mL) | > 64 µM | 16 µM (≈ 23.2 µg/mL) | 8 µM (≈ 11.6 µg/mL) | 8 µM (≈ 11.6 µg/mL) | > 64 µM | 8 µM (≈ 11.6 µg/mL) | 4 µM (≈ 5.8 µg/mL) | 4 µM (≈ 5.8 µg/mL) | MBC (Escherichia coli [21]): 16 µM (≈ 23.2 µg/mL); MBC (Escherichia coli [22]): 4 µM (≈ 5.8 µg/mL); MBC (Acinetobacter baumannii [23]): 2 µM (≈ 2.9 µg/mL); MIC95 (Escherichia coli [24]): 16 µM (≈ 23.2 µg/mL); MIC95 (Pseudomonas aeruginosa [25]): 64 µM (≈ 92.8 µg/mL); MBC (Pseudomonas aeruginosa [26]): 16 µM (≈ 23.2 µg/mL); MIC95 (Acinetobacter baumannii [27]): 2 µM (≈ 2.9 µg/mL); MIC95 [28]: 8 µM (≈ 11.6 µg/mL); MBC (Pseudomonas aeruginosa [29]): 64 µM (≈ 92.8 µg/mL); MIC95 (Pseudomonas aeruginosa [30]): 64 µM (≈ 92.8 µg/mL); MBC (Salmonella typhimurium [31]): 16 µM (≈ 23.2 µg/mL); MBC (Pseudomonas aeruginosa [32]): > 64 µM |
| H-LKPLLKPLLKPLLKPL-NH2 | > 64 µM | > 64 µM | > 64 µM | 16 µM | > 64 µM | > 64 µM | 32 µM | 16 µM | 16 µM | > 64 µM | 32 µM | > 64 µM | > 64 µM | > 64 µM | 64 µM | > 64 µM | > 64 µM | > 64 µM | 16 µM | 32 µM | MBC (Escherichia coli [21]): 64 µM; MBC (Escherichia coli [22]): 64 µM; MBC (Acinetobacter baumannii [23]): 8 µM; MIC95 (Escherichia coli [24]): 16 µM; MIC95 (Pseudomonas aeruginosa [25]): > 64 µM; MBC (Pseudomonas aeruginosa [26]): > 64 µM; MIC95 (Acinetobacter baumannii [27]): 4 µM; MIC95 [28]: 32 µM; MBC (Pseudomonas aeruginosa [29]): > 64 µM; MIC95 (Pseudomonas aeruginosa [30]): > 64 µM; MBC (Salmonella typhimurium [31]): > 64 µM; MBC (Pseudomonas aeruginosa [32]): > 64 µM |
| CC[C@H](C)CCCCC(=O)N[C@@H](CCN)C(=O)N[C@H](C(=O)N[C@@H](CCN)C(=O)N[C@H]1CCNC(=O)[C@H]([C@@H](C)O)NC(=O)[C@H](CCN)NC(=O)[C@H](CCN)NC(=O)[C@H](CC(C)C)NC(=O)[C@@H](Cc2ccccc2)NC(=O)[C@H](CCN)NC1=O)[C@@H](C)O (X1-[Dab]T[Dab][Dab][Dab][dF]L[Dab][Dab]T; lactam 4-C) | 4 µM (≈ 4.81 µg/mL) | 2 µM (≈ 2.41 µg/mL) | 8 µM (≈ 9.63 µg/mL) | 1 µM (≈ 1.2 µg/mL) | 4 µM (≈ 4.81 µg/mL) | 2 µM (≈ 2.41 µg/mL) | 2 µM (≈ 2.41 µg/mL) | 0.5 µM (≈ 0.602 µg/mL) | 1 µM (≈ 1.2 µg/mL) | 4 µM (≈ 4.81 µg/mL) | 2 µM (≈ 2.41 µg/mL) | 2 µM (≈ 2.41 µg/mL) | 2 µM (≈ 2.41 µg/mL) | 4 µM (≈ 4.81 µg/mL) | 1 µM (≈ 1.2 µg/mL) | 4 µM (≈ 4.81 µg/mL) | 8 µM (≈ 9.63 µg/mL) | 16 µM (≈ 19.3 µg/mL) | 2 µM (≈ 2.41 µg/mL) | 1 µM (≈ 1.2 µg/mL) | MBC (Escherichia coli [21]): 1 µM (≈ 1.2 µg/mL); MBC (Escherichia coli [22]): 2 µM (≈ 2.41 µg/mL); MBC (Acinetobacter baumannii [23]): 0.25 µM (≈ 0.301 µg/mL); MIC95 (Escherichia coli [24]): 0.5 µM (≈ 0.602 µg/mL); MIC95 (Pseudomonas aeruginosa [25]): 4 µM (≈ 4.81 µg/mL); MBC (Pseudomonas aeruginosa [26]): 32 µM (≈ 38.5 µg/mL); MIC95 (Acinetobacter baumannii [27]): 0.25 µM (≈ 0.301 µg/mL); MIC95 [28]: 0.5 µM (≈ 0.602 µg/mL); MBC (Pseudomonas aeruginosa [29]): 8 µM (≈ 9.63 µg/mL); MIC95 (Pseudomonas aeruginosa [30]): 2 µM (≈ 2.41 µg/mL); MBC (Salmonella typhimurium [31]): 4 µM (≈ 4.81 µg/mL); MBC (Pseudomonas aeruginosa [32]): 4 µM (≈ 4.81 µg/mL) |
| H-LKPLLKPLLKPLLKPLLKPLLKPLLKPLLKPL-NH2 | 4 µM | 2 µM | 2 µM | 1 µM | 4 µM | 4 µM | 2 µM | 1 µM | 1 µM | 8 µM | 1 µM | 2 µM | 2 µM | 1 µM | 4 µM | 4 µM | 16 µM | 1 µM | 1 µM | 2 µM | MBC (Escherichia coli [21]): 4 µM; MBC (Escherichia coli [22]): 2 µM; MBC (Acinetobacter baumannii [23]): 1 µM; MIC95 (Escherichia coli [24]): 2 µM; MIC95 (Pseudomonas aeruginosa [25]): 4 µM; MBC (Pseudomonas aeruginosa [26]): 2 µM; MIC95 (Acinetobacter baumannii [27]): 1 µM; MIC95 [28]: 2 µM; MBC (Pseudomonas aeruginosa [29]): 8 µM; MIC95 (Pseudomonas aeruginosa [30]): 4 µM; MBC (Salmonella typhimurium [31]): 4 µM; MBC (Pseudomonas aeruginosa [32]): 16 µM |
